Experimental data taken from US20180022780A1, “STABILIZATION ADRENOMEDULLIN DERIVATIVES AND USE THEREOF” (priority 2014, published 2018).
Bridge positions count the residues as written; N and C are the ends. Square brackets hold non-standard residues; d marks the D form. Peptide text beside a SMILES is read from it. Orn = NCCC[C@H](N)C(=O)O

Target: T1, CLR fused to EYFP and RAMP2 fused to ECFP (Homo sapiens, UniProt O60895+Q16602)
T1 construct: EYFP; ECFP; expressed in transfected cells; host or cells: HEK-293 cells, transient co-transfection
T1 sequence (Q16602 23-461): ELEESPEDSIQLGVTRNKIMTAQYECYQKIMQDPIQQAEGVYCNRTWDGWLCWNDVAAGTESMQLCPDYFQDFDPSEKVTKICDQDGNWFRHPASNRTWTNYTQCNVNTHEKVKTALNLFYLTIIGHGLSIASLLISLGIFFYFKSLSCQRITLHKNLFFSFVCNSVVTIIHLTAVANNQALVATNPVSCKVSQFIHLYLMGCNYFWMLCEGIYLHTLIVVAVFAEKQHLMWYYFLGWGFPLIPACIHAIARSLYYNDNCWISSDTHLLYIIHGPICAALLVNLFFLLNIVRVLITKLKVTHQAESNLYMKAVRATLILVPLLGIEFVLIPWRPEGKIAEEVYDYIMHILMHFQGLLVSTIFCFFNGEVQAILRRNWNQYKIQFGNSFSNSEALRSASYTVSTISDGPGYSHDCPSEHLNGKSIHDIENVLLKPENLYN
T1 sequence (O60895 43-175): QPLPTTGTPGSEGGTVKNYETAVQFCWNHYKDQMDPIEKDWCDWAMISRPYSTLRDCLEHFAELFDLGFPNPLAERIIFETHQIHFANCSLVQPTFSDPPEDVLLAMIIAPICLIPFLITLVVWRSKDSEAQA
Test: cAMP assay (CRE luciferase reporter, HEK-293 cells transiently co-transfected with CLR and RAMP2)
Type: cell-based
Conditions: Table 2, cAMP assay; HEK-293, CLR/RAMP2, CRE luciferase, 3 h stimulation, normalized to [G^14]ADM(14-52)
Procedure: HEK-293 cells (human embryonic kidney cells) were cultured in Ham's F-12/DMEM (1/1; v/v) containing 15% FCS under humidified atmosphere at 37° C. and 5% CO2 in 75 cm^2 cell culture flasks.
Cells were cultured in 75 cm^2 flasks to 70-80% confluency. 45 μl Metafectene® Pro was diluted in 900 μl Ham's F-12/DMEM (1/1; v/v) and incubated for 20 min at room temperature. 9000 ng plasmid containing DNA of CLR fused to EYFP and 3000 ng plasmid containing DNA of RAMP2 fused to ECFP were dissolved in 900 μl Ham's F-12/DMEM (1/1; v/v). The plasmid solution was mixed with the Metafectene® Pro solution and incubated for 25 min at room temperature. Medium was removed from the cells and replaced by 6 ml Ham's F-12/DMEM (1/1; v/v) containing 15% FCS. After addition of transfection solution the cells were incubated for 3 h under humidified atmosphere at 37° C. and 5% CO2.
For the second transfection 45 μl Metafectene® Pro was diluted in 900 μl Ham's F-12/DMEM (1/1; v/v) and incubated for 20 min at room temperature. 12000 ng of pGL4.29[luc2P/CRE/Hygro] plasmid containing DNA for the luciferase reporter gene luc2P (with CRE promotor region) were dissolved in 900 μl Ham's F-12/DMEM (1/1; v/v). The plasmid solution was mixed with the Metafectene® Pro solution and incubated for 25 min at room temperature. Medium was removed from the cells and replaced by 6 ml Ham's F-12/DMEM (1/1; v/v) containing 15% FCS. After addition of transfection solution the cells were incubated under humidified atmosphere at 37° C. and 5% CO2 over night.
For the coating of 96-well-plates 50 μl of a Poly-D-Lysine solution (1 ml stock solution of Poly-D-Lysin-hydrobromid/10 ml DPBS) were pipetted in each well and incubated for 40 min. After removal of the Poly-D-Lysine each well was washed with 50 μl DPBS. Transiently transfected cells were detached from the cell culture flask by removal of the medium, twofold washing with 5 m1 DPBS and resuspending in 13 ml Ham's F-12/DMEM (1/1; v/v) containing 15% FCS. 90000 to 120000 cells in 150 μl Ham's F-12/DMEM (1/1; v/v) containing 15% FCS were seeded per well and the plates were incubated under humidified atmosphere at 37° C. and 5% CO2 over night.
For each ligand a serial dilution giving eight different concentrations was prepared using Ham's F-12/DMEM (1/1; v/v). Before stimulation the medium on the cells was replaced by 100 μl Ham's F-12/DMEM (1/1; v/v) and the plates were incubated for 1 h under humidified atmosphere at 37° C. and 5% CO2. For stimulation the medium was removed again and the cells were incubated for 3 h in 80 μl of ligand-solution under humidified atmosphere at 37° C. and 5% CO2. In addition 80 μl of a 5 μM forskolin solution (in Ham's F-12/DMEM (1/1; v/v)) was used as a positive control and 80 μl of Ham's F-12/DMEM (1/1; v/v) as a negative control. Each concentration and the controls were tested as triplicates.
After 3 h of stimulation, the solutions were removed and the cells were washed with 50 μl of Ham's F-12/DMEM (1/1; v/v) per well. After 10 min incubation in 30 μl of Ham's F-12/DMEM (1/1; v/v) at room temperature, 30 μl of luciferase-solution (ONE-Glo™ Luciferase Assay System) was added and the luminescence was directly measured using an Infinite M200 (Tecan).
Data analysis of the luminescence measurement was carried out with GraphPad Prism 5. Therefore the measured luminescence values of each plate were first corrected on the base of the respective average of forskolin stimulation. Afterwards they were normalized to [G^14]ADM(14-52) which was used as standard peptide in every assay. After correction and normalization data was analysed using non-linear regression giving dose-response curves for each tested ligand.

| Compound | EC50 [µM] |
| --- | --- |
| CC[C@H](C)[C@H](NC(=O)[C@H](CCC(N)=O)NC(=O)[C@H](Cc1c[nH]cn1)NC(=O)[C@H](C)NC(=O)[C@H](CC(C)C)NC(=O)[C@H](CCCCN)NC(=O)[C@H](CCC(N)=O)NC(=O)[C@@H](NC(=O)[C@@H](NC(=O)[C@@H]1CCCCNC(=O)CC[C@H](NC(=O)CNC(=O)CN)C(=O)N[C@@H](CCCNC(=N)N)C(=O)N[C@@H](Cc2ccccc2)C(=O)NCC(=O)N[C@@H]([C@@H](C)O)C(=O)N1)[C@@H](C)O)C(C)C)C(=O)N[C@@H](Cc1ccc(O)cc1)C(=O)N[C@@H](CCC(N)=O)C(=O)N[C@@H](Cc1ccccc1)C(=O)N[C@H](C(=O)N[C@@H](CC(=O)O)C(=O)N[C@@H](CCCCN)C(=O)N[C@@H](CC(=O)O)C(=O)N[C@@H](CCCCN)C(=O)N[C@@H](CC(=O)O)C(=O)N[C@@H](CC(N)=O)C(=O)N[C@H](C(=O)N[C@@H](C)C(=O)N1CCC[C@H]1C(=O)N[C@@H](CCCNC(=N)N)C(=O)N[C@@H](CO)C(=O)N[C@@H](CCCCN)C(=O)N[C@H](C(=O)N[C@@H](CO)C(=O)N1CCC[C@H]1C(=O)N[C@@H](CCC(N)=O)C(=O)NCC(=O)N[C@@H](Cc1ccc(O)cc1)C(N)=O)[C@@H](C)CC)C(C)C)[C@@H](C)O [Example 1, ((2S,5S,11S,14S,23S)-23-(2-(2-aminoacetamido)acetamido)-5-benzyl-2-(3-guanidinopropyl)-11-((R)-1-hydroxyethyl)-3,6,9,12,20,24-hexaoxo-1,4,7,10,13,19-hexaazacyclotetracosane-14-carbonyl)-L-threonyl-ADM(22-52)] (H-GGERFGTKTVQKLAHQIYQFTDKDKDNVAPRSKISPQGY-NH2; lactam 3-8) | 0.031 |
| CC[C@H](C)[C@H](NC(=O)[C@H](CCC(N)=O)NC(=O)[C@H](Cc1c[nH]cn1)NC(=O)[C@H](C)NC(=O)[C@H](CC(C)C)NC(=O)[C@H](CCCCN)NC(=O)[C@H](CCC(N)=O)NC(=O)[C@@H](NC(=O)[C@@H](NC(=O)[C@@H]1CCC(=O)NCCC[C@H](NC(=O)CNC(=O)CN)C(=O)N[C@@H](CCCNC(=N)N)C(=O)N[C@@H](Cc2ccccc2)C(=O)NCC(=O)N[C@@H]([C@@H](C)O)C(=O)N1)[C@@H](C)O)C(C)C)C(=O)N[C@@H](Cc1ccc(O)cc1)C(=O)N[C@@H](CCC(N)=O)C(=O)N[C@@H](Cc1ccccc1)C(=O)N[C@H](C(=O)N[C@@H](CC(=O)O)C(=O)N[C@@H](CCCCN)C(=O)N[C@@H](CC(=O)O)C(=O)N[C@@H](CCCCN)C(=O)N[C@@H](CC(=O)O)C(=O)N[C@@H](CC(N)=O)C(=O)N[C@H](C(=O)N[C@@H](C)C(=O)N1CCC[C@H]1C(=O)N[C@@H](CCCNC(=N)N)C(=O)N[C@@H](CO)C(=O)N[C@@H](CCCCN)C(=O)N[C@H](C(=O)N[C@@H](CO)C(=O)N1CCC[C@H]1C(=O)N[C@@H](CCC(N)=O)C(=O)NCC(=O)N[C@@H](Cc1ccc(O)cc1)C(N)=O)[C@@H](C)CC)C(C)C)[C@@H](C)O [Example 20, ((2S,5S,11S,14S,22S)-22-(2-(2-aminoacetamido)acetamido)-5-benzyl-2-(3-guanidinopropyl)-11-((R)-1-hydroxyethyl)-3,6,9,12,17,23-hexaoxo-1,4,7,10,13,18-hexaazacyclotricosane-14-carbonyl)-L-threonyl-ADM(22-52)] (H-GG[Orn]RFGTETVQKLAHQIYQFTDKDKDNVAPRSKISPQGY-NH2; lactam 3-8) | 0.0091 |
